# Measurements from ChEMBL document CHEMBL4350952, “Evolution of PI3Kγ and δ Inhibitors for Inflammatory and Autoimmune Diseases” (J Med Chem, 2019).
# Key:
# Pfeiffer = assay: Cytotoxicity against human Pfeiffer cells; type: functional, cell-based
# [1] = biological target: T1, PI3-kinase p110-delta/p85-alpha (Homo sapiens, UniProt O00329); assay: Inhibition of N-terminal His6-tagged recombinant full length human p110delta/untagged recombinant full length human p85alpha expressed in baculovirus infected Sf21 insect cells after 20 mins by alphascreen assay
# T1 sequence (P27986 whole entry, one chain of several): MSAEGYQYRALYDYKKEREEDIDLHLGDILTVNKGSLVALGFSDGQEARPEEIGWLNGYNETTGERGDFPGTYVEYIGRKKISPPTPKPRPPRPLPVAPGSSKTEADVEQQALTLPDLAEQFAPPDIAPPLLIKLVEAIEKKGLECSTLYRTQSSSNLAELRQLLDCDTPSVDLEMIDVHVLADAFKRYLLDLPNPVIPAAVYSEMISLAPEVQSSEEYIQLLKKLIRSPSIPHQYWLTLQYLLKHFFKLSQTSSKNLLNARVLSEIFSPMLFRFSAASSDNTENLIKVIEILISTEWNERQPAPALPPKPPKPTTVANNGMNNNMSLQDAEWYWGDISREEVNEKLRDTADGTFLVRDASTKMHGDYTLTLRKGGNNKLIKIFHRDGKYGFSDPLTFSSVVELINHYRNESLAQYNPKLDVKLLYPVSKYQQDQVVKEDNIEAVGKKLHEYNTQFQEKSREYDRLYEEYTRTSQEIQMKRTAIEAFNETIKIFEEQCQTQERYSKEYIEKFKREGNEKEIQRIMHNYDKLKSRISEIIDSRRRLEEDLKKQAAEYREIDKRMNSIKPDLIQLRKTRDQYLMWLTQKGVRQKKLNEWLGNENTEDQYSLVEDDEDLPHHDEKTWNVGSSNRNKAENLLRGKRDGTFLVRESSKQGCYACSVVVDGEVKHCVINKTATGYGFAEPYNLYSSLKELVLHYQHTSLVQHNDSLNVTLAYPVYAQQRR
# [2] = biological target: T1, PI3-kinase p110-delta/p85-alpha; assay: Inhibition of N-terminal His6-tagged recombinant full length human p110delta/untagged recombinant full length human p85alpha expressed in baculovirus infected Sf21 insect cells using PIP2 as substrate after 60 mins by HTRF assay
# [3] = biological target: Phosphatidylinositol 3-kinase catalytic subunit type 3 (Homo sapiens, UniProt Q8NEB9); assay: Inhibition of Vps34 (unknown origin)
# Sequence of Phosphatidylinositol 3-kinase catalytic subunit type 3 (Q8NEB9 whole entry): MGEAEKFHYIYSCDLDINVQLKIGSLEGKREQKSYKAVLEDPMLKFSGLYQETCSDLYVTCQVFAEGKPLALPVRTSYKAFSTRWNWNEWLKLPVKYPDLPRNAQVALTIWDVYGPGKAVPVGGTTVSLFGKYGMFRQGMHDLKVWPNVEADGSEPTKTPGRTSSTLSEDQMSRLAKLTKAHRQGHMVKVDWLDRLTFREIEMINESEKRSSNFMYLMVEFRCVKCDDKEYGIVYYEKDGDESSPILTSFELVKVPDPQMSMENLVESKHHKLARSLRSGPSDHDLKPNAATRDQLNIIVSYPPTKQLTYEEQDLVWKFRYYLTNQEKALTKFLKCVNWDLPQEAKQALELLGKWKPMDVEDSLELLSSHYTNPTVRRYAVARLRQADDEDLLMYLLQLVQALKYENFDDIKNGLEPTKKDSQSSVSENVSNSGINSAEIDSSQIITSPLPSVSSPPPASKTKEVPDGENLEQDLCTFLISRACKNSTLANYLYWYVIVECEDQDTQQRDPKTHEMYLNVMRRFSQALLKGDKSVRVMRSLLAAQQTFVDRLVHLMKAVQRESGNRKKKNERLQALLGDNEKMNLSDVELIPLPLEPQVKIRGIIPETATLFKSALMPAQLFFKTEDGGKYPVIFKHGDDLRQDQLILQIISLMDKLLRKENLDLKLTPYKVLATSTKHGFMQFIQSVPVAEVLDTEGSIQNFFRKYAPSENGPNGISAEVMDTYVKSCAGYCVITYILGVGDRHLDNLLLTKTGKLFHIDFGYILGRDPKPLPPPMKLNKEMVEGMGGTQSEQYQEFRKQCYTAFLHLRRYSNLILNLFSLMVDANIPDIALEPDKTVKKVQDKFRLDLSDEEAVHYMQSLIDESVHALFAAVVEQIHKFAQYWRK
# [4] = biological target: DNA-dependent protein kinase catalytic subunit (Homo sapiens, UniProt P78527); assay: Inhibition of DNAPK (unknown origin)
# [5] = biological target: Serine/threonine-protein kinase SIK1 (Homo sapiens) (UniProt P57059); assay: Inhibition of SIK (unknown origin) at 1 uM relative to control
# Sequence of Serine/threonine-protein kinase SIK1 (Homo sapiens) (P57059 whole entry): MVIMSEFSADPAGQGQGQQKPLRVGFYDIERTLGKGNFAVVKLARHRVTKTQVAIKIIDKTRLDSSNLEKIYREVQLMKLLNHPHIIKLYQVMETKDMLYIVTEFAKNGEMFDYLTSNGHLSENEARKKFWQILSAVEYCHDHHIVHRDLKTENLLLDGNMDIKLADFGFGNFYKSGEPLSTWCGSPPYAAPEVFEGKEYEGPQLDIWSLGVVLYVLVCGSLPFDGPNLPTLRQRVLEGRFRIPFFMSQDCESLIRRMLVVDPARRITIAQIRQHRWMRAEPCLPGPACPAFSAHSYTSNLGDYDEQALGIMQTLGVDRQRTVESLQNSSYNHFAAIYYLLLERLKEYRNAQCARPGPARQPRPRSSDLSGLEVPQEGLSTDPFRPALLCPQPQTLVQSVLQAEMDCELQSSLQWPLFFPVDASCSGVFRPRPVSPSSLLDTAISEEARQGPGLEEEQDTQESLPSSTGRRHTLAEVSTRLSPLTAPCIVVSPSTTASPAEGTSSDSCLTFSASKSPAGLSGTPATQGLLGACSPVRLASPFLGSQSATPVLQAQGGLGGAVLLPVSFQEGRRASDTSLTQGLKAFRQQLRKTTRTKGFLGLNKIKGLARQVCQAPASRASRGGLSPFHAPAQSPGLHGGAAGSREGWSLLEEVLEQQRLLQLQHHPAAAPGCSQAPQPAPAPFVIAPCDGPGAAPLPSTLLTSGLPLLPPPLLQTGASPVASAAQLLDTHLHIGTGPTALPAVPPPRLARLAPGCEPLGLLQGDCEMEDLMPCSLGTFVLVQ
# Raji = assay: Cytotoxicity against in human Raji cells; type: functional, cell-based
# [6] = biological target: T1, PI3-kinase p110-delta/p85-alpha; assay: Inhibition of N-terminal His6-tagged recombinant full length human p110delta/untagged recombinant full length human p85alpha expressed in baculovirus infected Sf21 insect cells after 80 mins by fluorescence polarization assay
# [7] = biological target: T2, Phosphatidylinositol 4,5-bisphosphate 3-kinase catalytic subunit gamma isoform (Homo sapiens, UniProt P48736); assay: Inhibition of recombinant N-terminal His-tagged full length human PI3Kgamma expressed in baculovirus expression system after 80 mins by fluorescence polarization assay
# T2 sequence (P48736 whole entry, canonical isoform): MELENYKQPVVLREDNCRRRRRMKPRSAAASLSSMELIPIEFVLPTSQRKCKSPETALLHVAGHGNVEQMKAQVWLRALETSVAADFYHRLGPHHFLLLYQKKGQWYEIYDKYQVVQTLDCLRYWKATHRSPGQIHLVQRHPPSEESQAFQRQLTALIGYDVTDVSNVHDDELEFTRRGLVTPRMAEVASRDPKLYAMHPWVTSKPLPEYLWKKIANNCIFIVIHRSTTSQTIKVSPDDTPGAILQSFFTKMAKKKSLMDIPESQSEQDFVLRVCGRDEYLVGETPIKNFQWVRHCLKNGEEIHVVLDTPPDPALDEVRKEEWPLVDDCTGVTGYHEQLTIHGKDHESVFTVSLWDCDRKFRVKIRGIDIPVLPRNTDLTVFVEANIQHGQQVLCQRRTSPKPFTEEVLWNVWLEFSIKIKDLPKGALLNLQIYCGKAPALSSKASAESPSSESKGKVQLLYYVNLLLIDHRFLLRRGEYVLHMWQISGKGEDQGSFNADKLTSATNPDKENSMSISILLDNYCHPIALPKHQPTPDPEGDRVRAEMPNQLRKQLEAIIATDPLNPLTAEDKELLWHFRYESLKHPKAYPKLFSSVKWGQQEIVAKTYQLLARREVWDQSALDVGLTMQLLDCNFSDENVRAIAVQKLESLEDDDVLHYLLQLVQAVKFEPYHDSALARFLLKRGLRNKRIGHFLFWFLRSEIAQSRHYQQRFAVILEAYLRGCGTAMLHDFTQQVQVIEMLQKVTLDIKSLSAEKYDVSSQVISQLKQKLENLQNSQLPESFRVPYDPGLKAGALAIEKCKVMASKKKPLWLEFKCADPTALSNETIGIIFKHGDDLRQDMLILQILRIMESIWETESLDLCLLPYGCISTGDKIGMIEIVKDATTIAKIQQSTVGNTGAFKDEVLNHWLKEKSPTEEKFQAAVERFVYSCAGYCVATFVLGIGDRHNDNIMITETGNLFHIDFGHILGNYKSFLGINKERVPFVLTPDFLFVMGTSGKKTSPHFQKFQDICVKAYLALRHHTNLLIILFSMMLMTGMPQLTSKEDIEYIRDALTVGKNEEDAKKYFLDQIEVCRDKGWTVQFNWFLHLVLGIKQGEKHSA
# Homo sapiens [8] = species: Homo sapiens; assay: Selectivity ratio of IC50 for His-tagged recombiant human full length p110 alpha/p85 alpha IC50 for N-terminal His6-tagged recombinant full length human p110delta/untagged recombinant full length human p85alpha
# Homo sapiens [9] = species: Homo sapiens; assay: Selectivity ratio of IC50 for N-terminal His-tagged recombinant human full length p110 beta/untagged recombinant full length human p85alpha IC50 forN-terminal His6-tagged recombinant full length human p110delta/untagged recombinant full length human p85alpha
# [10] = biological target: T3, Phosphatidylinositol 4,5-bisphosphate 3-kinase catalytic subunit delta isoform (Homo sapiens, UniProt O00329)
# T3 sequence (O00329 whole entry): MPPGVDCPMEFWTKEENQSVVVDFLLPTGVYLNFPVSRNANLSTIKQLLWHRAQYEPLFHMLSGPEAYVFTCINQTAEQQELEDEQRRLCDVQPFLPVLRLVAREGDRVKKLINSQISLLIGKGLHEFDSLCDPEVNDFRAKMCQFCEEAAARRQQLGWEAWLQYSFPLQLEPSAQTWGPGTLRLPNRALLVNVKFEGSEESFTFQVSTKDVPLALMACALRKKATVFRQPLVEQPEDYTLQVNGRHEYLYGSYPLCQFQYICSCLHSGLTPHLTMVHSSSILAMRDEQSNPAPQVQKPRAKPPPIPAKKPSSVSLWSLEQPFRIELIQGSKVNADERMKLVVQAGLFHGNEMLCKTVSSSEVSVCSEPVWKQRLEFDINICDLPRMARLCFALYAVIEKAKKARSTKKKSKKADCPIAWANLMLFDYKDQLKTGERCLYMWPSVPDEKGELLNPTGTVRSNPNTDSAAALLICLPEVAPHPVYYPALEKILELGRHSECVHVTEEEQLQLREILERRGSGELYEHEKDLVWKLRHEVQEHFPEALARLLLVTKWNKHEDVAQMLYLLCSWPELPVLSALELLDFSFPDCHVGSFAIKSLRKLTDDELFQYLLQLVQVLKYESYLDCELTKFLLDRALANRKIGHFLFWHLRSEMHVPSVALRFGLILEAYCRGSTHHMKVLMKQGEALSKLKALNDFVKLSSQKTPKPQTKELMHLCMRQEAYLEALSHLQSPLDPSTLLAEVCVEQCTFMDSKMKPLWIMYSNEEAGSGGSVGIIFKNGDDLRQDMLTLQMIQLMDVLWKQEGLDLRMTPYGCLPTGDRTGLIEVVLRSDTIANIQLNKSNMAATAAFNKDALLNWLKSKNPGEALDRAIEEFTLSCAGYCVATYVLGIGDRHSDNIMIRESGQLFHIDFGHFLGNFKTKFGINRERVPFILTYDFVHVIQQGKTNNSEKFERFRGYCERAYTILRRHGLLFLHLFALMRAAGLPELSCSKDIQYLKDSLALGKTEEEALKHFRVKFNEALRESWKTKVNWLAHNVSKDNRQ
# Description: Inhibition of PI3Kdelta (unknown origin) preincubated for 30 mins followed by insulin stimulation for 5 mins by Western blot analysis
# [11] = biological target: T3, Phosphatidylinositol 4,5-bisphosphate 3-kinase catalytic subunit delta isoform; assay: Inhibition of PI3Kdelta (unknown origin)
# [12] = biological target: T2, Phosphatidylinositol 4,5-bisphosphate 3-kinase catalytic subunit gamma isoform; assay: Inhibition of PI3Kgamma (unknown origin)
# [13] = biological target: Casein kinase I isoform epsilon (Homo sapiens) (UniProt P49674); assay: Inhibition of casein kinase 1 epsilon (unknown origin) at 1 uM relative to control
# Sequence of Casein kinase I isoform epsilon (Homo sapiens) (P49674 whole entry, looked up, canonical isoform): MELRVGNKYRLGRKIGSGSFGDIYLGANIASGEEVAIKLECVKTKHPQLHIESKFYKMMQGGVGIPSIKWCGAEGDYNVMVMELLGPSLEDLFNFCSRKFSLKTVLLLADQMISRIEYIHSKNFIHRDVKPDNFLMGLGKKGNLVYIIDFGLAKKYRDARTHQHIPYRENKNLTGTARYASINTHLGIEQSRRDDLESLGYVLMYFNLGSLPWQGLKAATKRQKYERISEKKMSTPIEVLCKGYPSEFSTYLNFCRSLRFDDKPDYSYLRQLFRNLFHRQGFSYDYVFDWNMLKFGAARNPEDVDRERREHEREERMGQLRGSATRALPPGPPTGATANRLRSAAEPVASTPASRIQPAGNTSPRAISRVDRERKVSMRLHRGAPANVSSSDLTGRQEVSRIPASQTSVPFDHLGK
# [14] = biological target: T2, Phosphatidylinositol 4,5-bisphosphate 3-kinase catalytic subunit gamma isoform; assay: Inhibition of PI3Kgamma (unknown origin) using PIP2 as substrate preincubated for 10 mins followed by ATP addition measured after 30 mins by HTRF assay
# Homo sapiens [15] = species: Homo sapiens; assay: Selectivity ratio of IC50 for N-terminal His6-tagged recombiant human full length p120gamma IC50 for N-terminal His6-tagged recombinant full length human p110delta/untagged recombinant full length human p85alpha
# Jurkat = assay: Cytotoxicity against human Jurkat cells; type: functional, cell-based
# [16] = Cytotoxicity against human SUDHL cells; type: functional, cell-based
# [17] = biological target: T3, Phosphatidylinositol 4,5-bisphosphate 3-kinase catalytic subunit delta isoform; assay: Inhibition of PI3Kdelta in human Neutrophil cells; type: cell-based
# [18] = biological target: T2, Phosphatidylinositol 4,5-bisphosphate 3-kinase catalytic subunit gamma isoform; assay: Inhibition of PI3Kgamma in human Neutrophil cells; type: cell-based
# Homo sapiens [19] = species: Homo sapiens; assay: Selectivity ratio of IC50 for PI3Kalpha in human Neutrophil cells to IC50 for PI3Kdelta in human Neutrophil cells; type: cell-based
# Homo sapiens [20] = species: Homo sapiens; assay: Selectivity ratio of IC50 for PI3Kbeta in human Neutrophil cells to IC50 for PI3Kdelta in human Neutrophil cells; type: cell-based
# Neutrophil = assay: Cytotoxicity against in human Neutrophil cells; type: cell-based
# [21] = biological target: T3, Phosphatidylinositol 4,5-bisphosphate 3-kinase catalytic subunit delta isoform; assay: Inhibition of PI3Kdelta in human Pfeiffer cells; type: cell-based
# [22] = biological target: T3, Phosphatidylinositol 4,5-bisphosphate 3-kinase catalytic subunit delta isoform; assay: Inhibition of PI3Kdelta in human SU-DHL6 cells; type: cell-based
# SU-DHL-6 [23] = assay: Cytotoxicity against human SU-DHL6 cells; type: functional, cell-based
# [24] = Cytotoxicity against basophil derived from B-cell malignant patient by cell-titer aqueous one solution cell proliferation assay; type: functional; settings: Homo sapiens
# [25] = Cytotoxicity against human basophil cells after 24 hrs by MTT assay; type: cell-based
# [26] = biological target: T2, Phosphatidylinositol 4,5-bisphosphate 3-kinase catalytic subunit gamma isoform; assay: Inhibition of GST-tagged PI3Kgamma (unknown origin) using PIP2 as substrate preincubated for 2 hrs followed by ATP addition measured after 30 mins by TR-FRET assay
# JeKo-1 = assay: Cytotoxicity against human JeKo1 cells; type: functional, cell-based
# B cell = assay: Cytotoxicity against human B cells; type: functional, cell-based
# [27] = biological target: T2, Phosphatidylinositol 4,5-bisphosphate 3-kinase catalytic subunit gamma isoform; assay: Inhibition of PI3Kgamma in human SUDHL6 cells; type: cell-based
# Homo sapiens [28] = species: Homo sapiens; assay: Selectivity ratio of IC50 for PI3Kalpha in human SUDHL6 cells to IC50 for PI3Kdelta in human SUDHL6 cells; type: cell-based
# Homo sapiens [29] = species: Homo sapiens; assay: Selectivity ratio of IC50 for PI3Kbeta in human SUDHL6 cells to IC50 for PI3Kdelta in human SUDHL6 cells; type: cell-based
# SU-DHL-6 [30] = assay: Cytotoxicity against in human SUDHL6 cells; type: functional, cell-based
# [31] = biological target: T1, PI3-kinase p110-delta/p85-alpha; assay: Inhibition of N-terminal His6-tagged recombinant full length human p110delta/untagged recombinant full length human p85alpha expressed in baculovirus infected Sf21 insect cells after 60 mins by ADP-Glo assay
smiles,measurement,setting,value
COc1c(C(C)Nc2ncnc(N)c2C#N)cc(Cl)c(C)c1-c1cccnc1 (stereo not given),IC50,Pfeiffer,< 20 nM
same,IC50,[1],< 20 nM
COc1ccc(-c2nc3c(O[C@H]4CCN(C(=O)C5CCOCC5)C4)ncnc3n2C)cn1,IC50,[2],< 1 nM
C[C@H](NC(=O)c1c(N)nn2cccnc12)c1cc2cccc(C#Cc3cnn(C)c3)c2c(=O)n1-c1ccccc1 [EGANELISIB],IC50,[3],40000 nM
same,IC50,[4],4800 nM
same,inhibition,[5],88%
CCC(=O)N1CC[C@H](Oc2ncnc3c2nc(-c2cnn(CC)c2C)n3C)C1,IC50,[2],< 1 nM
C[C@H](Nc1ncnc2nc[nH]c12)c1cc2cccc(Cl)c2c(=O)n1-c1ccccc1 [DUVELISIB],IC50,Raji,0.36 nM
C[C@H]1CN(c2nc(N)nc3c2S(=O)(=O)CC3)[C@@H]1c1nn2ccc(Cl)c2c(=O)n1-c1ccccc1,IC50,[6],4 nM
same,IC50,[7],3 nM
same,Ratio IC50,Homo sapiens [8],250
same,Ratio IC50,Homo sapiens [9],250
CC[C@H](Nc1ncnc(N)c1-c1nnc(C)o1)c1nc2cccc(Cl)c2c(=O)n1-c1ccccc1,IC50,[10],2 nM
Cc1nc(N)nc(N[C@@H](C)c2nc3ccn(C)c3cc2N2CCNCC2)c1C#N,IC50,[11],0.7 nM
CC(c1cc2ccccn2c1-c1ccc(=O)n(CCN2CCOCC2)n1)n1nc(-c2cc(O)cc(F)c2)c2c(N)ncnc21 (stereo not given),IC50,[11],10 to 1000 nM
same,IC50,[12],< 10 nM
CC(C)Oc1ccc(-c2nn([C@@H](C)c3oc4ccc(F)cc4c(=O)c3-c3cccc(F)c3)c3ncnc(N)c23)cc1F [UMBRALISIB],inhibition,[13],> 60%
same,IC50,[14],> 120 nM
Cc1ccc2c(c1)C(=O)N(C)c1cnc(Nc3cccc(S(=O)(=O)N4CCC(O)CC4)c3)nc1N2C,IC50,[11],2 nM
same,Ratio IC50,Homo sapiens [15],3.5
same,IC50,Jurkat,1400 nM
CC(c1oc(=O)c2ccccc2c1C1=CCN(C)CC1)n1nc(-c2cc(O)cc(F)c2)c2c(N)ncnc21 (stereo not given),IC50,[12],> 1000 nM
CCn1c(-c2cnc(C)nc2)nc2c(NC3CCc4nc(Cl)n(C5CC5)c4C3)ncnc21 (stereo not given),IC50,[2],< 1 nM
CC(=O)N1CC(N2CCOc3c(C(C)n4nc(C)c5c(N)ncnc54)cc(Cl)c(C)c3C2)C1 (stereo not given),IC50,[1],< 100 nM
same,IC50,[16],< 500 nM
[O-][n+]1cccc(-c2nc3c(Cl)cccc3cc2[C@@H](Nc2ncnc3cccnc23)C(F)(F)F)c1 [SELETALISIB],IC50,[17],12 nM
same,IC50,[18],280 nM
same,Ratio IC50,Homo sapiens [19],300
same,Ratio IC50,Homo sapiens [20],180
same,IC50,Neutrophil,16 nM
Cc1c(Cl)cc(C(C)Nc2ncnc3nc[nH]c23)c(-c2cccc(F)c2)c1C(N)=O (stereo not given),IC50,[21],< 50 nM
same,IC50,Pfeiffer,< 50 nM
CCn1c(-c2ccc(C(F)(F)F)nc2)nc2c(NC3CCc4nnc(C(C)C)n4C3)ncnc21 (stereo not given),IC50,[2],< 1 nM
Cc1ccn2nc([C@H](C)Nc3ncnc4[nH]cc(-c5ccc(O)c(CN6CCC(N(C)C)CC6)c5)c34)n(-c3ccccc3)c(=O)c12,IC50,[10],0.43 nM
C[C@H](Nc1ncnc(N)c1-c1nnn[nH]1)c1nn2cccc2c(=O)n1-c1ccccc1,IC50,[10],0.2 nM
C[C@H](Nc1nc(N)nc(N)c1C#N)c1cn2ncc(Cl)c2nc1-c1cccc(F)c1,IC50,[22],< 20 nM
same,IC50,SU-DHL-6 [23],< 20 nM
CC[C@H](Nc1ncnc2[nH]cnc12)c1nc2cccc(F)c2c(=O)n1-c1ccccc1 [IDELALISIB],IC50,[24],846 nM
C[C@H](Nc1ncnc2[nH]cnc12)c1nc2ccc(F)cc2c(=O)n1-c1ccccc1 [ACALISIB],IC50,[25],19 nM
same,IC50,[26],3000 nM
CC[C@H](Nc1ncnc2c1nc(-c1cnn(CC)c1C)n2C)C(=O)N1CCC(F)(F)CC1,IC50,[2],2.8 nM
Cn1nc(-c2cnc(N)c(-c3ccc(C(N)=O)c(F)c3)n2)nc1C1(c2ccccc2)CC1,IC50,JeKo-1,120 nM
CCOc1c([C@H](C)n2nc(C)c3c(N)ncnc32)cc(Cl)c(F)c1[C@@H]1CNC(=O)C1 [PARSACLISIB],IC50,B cell,0.15 nM
C[C@H](Nc1ncnc(N)c1C#N)c1cc2ncc(Cl)n2cc1-c1ccccc1,IC50,[11],0.2 nM
same,IC50,[12],87 nM
C[C@H](Nc1ncnc(N)c1C#Cc1ccc(F)cn1)c1nc2c(F)ccc(F)c2c(=O)n1-c1cc(F)cc(F)c1,IC50,[10],< 100 nM
Cc1csc2cc(C(C)Nc3ncnc4[nH]cnc34)c(-c3ccccc3)c(=O)n12 (stereo not given),IC50,SU-DHL-6 [23],36 nM
Cc1nc(NC(=O)CNC(=O)c2ccccc2)sc1-c1cnc(Cl)c(NS(=O)(=O)c2ccccc2)c1,IC50,[11],0.6 nM
same,Ratio IC50,Homo sapiens [15],71
Cc1ncc(-c2nc3c(-c4ccc5c(c4)C4(CCCN4S(C)(=O)=O)C(=O)N5)ncnc3n2C)cn1 (stereo not given),IC50,[2],0.7 nM
C[C@H](Nc1ncnc2[nH]cnc12)C1=Nc2cccc(Cl)c2S(=O)(=O)N1c1ccccc1,IC50,[27],34 nM
same,Ratio IC50,Homo sapiens [28],790
same,Ratio IC50,Homo sapiens [29],170
same,IC50,SU-DHL-6 [30],6 nM
CC(Nc1ncnc2[nH]cnc12)c1cc2ccccn2c(=O)c1-c1ccccc1 (stereo not given),IC50,[11],0.1 to 10 nM
Cc1csc2nc([C@H](C)Nc3ncnc4[nH]cnc34)c(-c3cccc(F)c3)c(=O)n12 [DEZAPELISIB],IC50,[24],35 nM
Cc1nn(C)c(-c2ccccc2)c1Cn1nc(-c2cc(O)cc(F)c2)c2c(N)ncnc21,IC50,[31],< 1000 nM
Cn1c(C(=O)NCC2CC2)nc2c(N3CCC(n4c(=O)[nH]c5ccccc54)CC3)ncnc21,IC50,[2],7.5 nM
same,Ratio IC50,Homo sapiens [15],> 13
Cc1cccc2nc([C@H](C)Nc3ncnc4[nH]cc(-c5cccc(NS(C)(=O)=O)c5)c34)n(-c3ccccc3)c(=O)c12,IC50,[10],0.04 nM
